These results are taken from patent publication EP4559896A1, “PH-SENSITIVE CATIONIC LIPID AND LIPID NANOPARTICLE” (National University Corporation Hokkaido University, priority 2022, dated 2024).

Data set [1] in a line: encapsulation rate of lipid nanoparticles (RiboGreen). The format is physicochemical. The note with it: Fluc mRNA-loaded lipid nanoparticles, TOT/DSPC/chol/PEG-DMG=65/15/20/1.5 (mol%). How it is done: The encapsulation rate of the lipid nanoparticles was determined by measuring the amount of encapsulated nucleic acid (mRNA) using RiboGreen (manufactured by Life Technologies), which is an RNAintercalator. The amount of mRNA was quantified based on a calibration curve prepared from a dilution series solution of mRNA at a known concentration.
Specifically, 10 mM HEPES buffer (pH 7.4), 10 w/v% Triton X-100, and RiboGreen were mixed at 978.8 µL, 20 µL, and 1.25 µL per 10 wells, respectively, to obtain a Triton(+) buffer. A Triton(-) buffer was obtained in replacing Triton X-100 with 10 mM HEPES buffer (pH 7.4). 100 µL/well of the sample was added to a black 96-well plate for fluorescence measurement, and 100 µL/well of Triton(+) buffer or Triton(-) buffer was added. After the plate was gently shaken on a shaking incubator (SI-300, manufactured by AS ONE) (700 rpm, 30 seconds), the fluorescence intensity of each well was measured using a microplate reader (VARIOSKAN LUX, manufactured by Thermo Fisher Scientific) (wavelength Ex/Em=500 nm/525 nm), and the nucleic acid encapsulation rate (%) was calculated.

Data set [2] can be described thus: average particle size and polydispersity index by dynamic light scattering. The format is physicochemical. To be noted: Fluc mRNA-loaded lipid nanoparticles. The procedure: The average particle size (number average value), ζ-average particle size, and polydispersity index (PdI) of the lipid nanoparticles in PBS(-) (pH 7.4), and the zeta potential in 10 mM HEPES buffer (pH 7.4) were measured using an analyzer "Zetasizer Nano ZS ZEN3600" (manufactured by Malvern) utilizing dynamic light scattering.

Setting [3] is: TOT/DSPC/chol/PEG-DMG=65/15/20/1.5 (mol%).
Where [4] appears, read: TOT-4/DSPC/chol/PEG-DMG=65/15/20/1.5, CL4F6/DSPC/chol/PEG-DMG=50/10/40/1.5 (mol%).

For `CCCCCCCC/C=C\CCCCCCCC(=O)OCC(COC(=O)CCCCCCC/C=C\CCCCCCCC)(COC(=O)CCCCCCC/C=C\CCCCCCCC)NC(=O)CN` [TOT-6, 2-(2-aminoacetamido)-2-((oleoyloxy)methyl)propane-1,3-diyl dioleate], in data set [1], the “Encapsulation Rate” value is recorded as 95.4%. Further, in data set [2] (setting [3]), the PdI is listed as 0.190 and the “ζ-Average Particle Size” value was determined as 102.5 nm.

Regarding “7-(4-(diisopropylamino)butyl)-13-((2-hexylnonanoyl)oxy)-7-hydroxytridecyl 2-hexyldecanoate [CL4F6, reference compound]”, in data set [2] (setting [4]), the “Number Average Particle Size” value amounted to 59.4 nm, the PdI came out at 99.0 and the “ζ-Average Particle Size” value was 90.7 nm.

With `CCCCCCCC/C=C\CCCCCCCC(=O)OCC(COC(=O)CCCCCCC/C=C\CCCCCCCC)(COC(=O)CCCCCCC/C=C\CCCCCCCC)NC(=O)CCN(C)C` [TOT-1, 2-(3-(dimethylamino)propanamido)-2-((oleoyloxy)methyl)propane-1,3-diyl dioleate], the “Encapsulation Rate” value in data set [1] is recorded as 85.9%. Moreover, in data set [2] (setting [3]), the PdI was 0.324 and the “ζ-Average Particle Size” value came to 138.0 nm.

Regarding `CCCCCCCC/C=C\CCCCCCCC(=O)OCC(COC(=O)CCCCCCC/C=C\CCCCCCCC)(COC(=O)CCCCCCC/C=C\CCCCCCCC)NC(=O)C1CCN(C)C1` (stereo not drawn) [TOT-20, 2-(1-methylpyrrolidine-3-carboxamide)-2-((oleoyloxy)methyl)propane-1,3-diyl dioleate], the “Encapsulation Rate” value in data set [1] was 94.7%. In data set [2] (setting [3]), the PdI was found to be 0.263 and the “ζ-Average Particle Size” value was determined as 201.8 nm.

With `CCCCCCCC/C=C\CCCCCCCC(=O)OCC(COC(=O)CCCCCCC/C=C\CCCCCCCC)(COC(=O)CCCCCCC/C=C\CCCCCCCC)NC(=O)[C@@H](N)CO` [TOT-8, 2-((S)-2-amino-3-hydroxypropanamido)-2-((oleoyloxy)methyl)propane-1,3-diyl dioleate], the “Encapsulation Rate” value in data set [1] is recorded as 85.7%. In addition, in data set [2] (setting [3]), the PdI is 0.213 and the “ζ-Average Particle Size” value is on record as 87.1 nm.
